This note sets out measurements from paper PMC6302903, “Protein and Chemical Determinants of BL-1249 Action and Selectivity for K2P Channels” (ACS Chemical Neuroscience, 2018).

The structures appear in SMILES notation. Where only a bound is given, the exact number is not on record here.

Type in all cases: cell-based
The target of one test is T1, K2P2.1(TREK-1) G137I (Mus musculus, UniProt P97438, G152I).
T1 construct: expressed in transfected cells; host or cells: Xenopus laevis oocytes, mRNA injected
T1 sequence (P97438 1-411 isoform P97438-2 G137I): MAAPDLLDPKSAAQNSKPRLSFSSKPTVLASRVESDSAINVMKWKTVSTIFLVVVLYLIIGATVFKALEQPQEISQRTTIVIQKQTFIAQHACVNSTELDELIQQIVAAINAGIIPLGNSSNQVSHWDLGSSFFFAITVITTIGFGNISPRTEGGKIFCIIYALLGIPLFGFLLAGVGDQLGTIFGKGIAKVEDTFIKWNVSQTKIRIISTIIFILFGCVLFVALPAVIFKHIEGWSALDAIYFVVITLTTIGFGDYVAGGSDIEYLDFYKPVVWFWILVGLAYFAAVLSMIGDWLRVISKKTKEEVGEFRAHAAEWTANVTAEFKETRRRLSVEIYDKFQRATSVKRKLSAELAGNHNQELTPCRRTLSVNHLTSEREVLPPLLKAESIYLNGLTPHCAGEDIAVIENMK
Put plainly: TEVC of C-type gate activating mutant G137I. To be noted: Xenopus oocytes. The source says: Diverse types of physical and chemical stimuli activate K2P2.1(TREK-1) by stabilizing the C-type gate and switching the channel into a “leak” mode that is characterized by a loss of outward rectification of the potassium current.[6],[8] Accordingly, we used inside-out patch clamp experiments of K2P2.1(TREK-1) expressed in HEK293 cells to test whether BL-1249 acts on the C-type gate. […] Together with previous single point concentration studies showing the insensitivity of K2P2.1(TREK-1) W275S in mammalian cells,[40] our data provide definitive evidence that BL-1249 activates K2P2.1(TREK-1) by stimulating the C-type gate. […]
(§1) Xenopus laevis oocytes were harvested in accordance with UCSF IACUC protocol AN129690 and digested in calcium-free ND-96 (96 mM NaCl, 2 mM KCl, 3.8 mM MgCl2) immediately following harvest, as previously described.[6],[10] […] Defolliculated stage V–VI oocytes were injected with 0.2–6.0 ng of mRNA in 50 nL, and currents were recorded 24–48 h after injection. mRNA was synthesized from plasmid DNA using mMessage mMachine Kit (T7 promoter, Ambion, Life Technologies) and purified using RNEasy Kit (Qiagen). […] Once stabilized basal currents were recorded, compounds were perfused at various concentrations in standard ND96 and currents were allowed to increase to stabilization before recording final current. […]

For another test, the target named is T2, K2P2.1(TREK-1)Δ308 (Mus musculus, UniProt P97438).
T2 construct: and at residue 308, K2P2.1(TREK-1)Δ308; expressed in transfected cells; host or cells: Xenopus laevis oocytes, mRNA injected
T2 sequence (P97438 1-308 isoform P97438-2): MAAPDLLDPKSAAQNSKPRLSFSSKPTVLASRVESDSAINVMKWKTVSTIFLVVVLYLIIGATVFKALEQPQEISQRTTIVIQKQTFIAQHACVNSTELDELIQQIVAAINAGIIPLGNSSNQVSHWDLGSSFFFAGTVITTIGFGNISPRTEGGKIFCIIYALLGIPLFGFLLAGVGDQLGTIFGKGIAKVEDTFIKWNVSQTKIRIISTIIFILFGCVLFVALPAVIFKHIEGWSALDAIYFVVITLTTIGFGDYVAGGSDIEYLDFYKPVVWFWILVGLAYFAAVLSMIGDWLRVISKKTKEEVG
Put plainly: TEVC of C-terminal truncation at residue 308. To be noted: Xenopus oocytes, saturation not reached, fit with upper boundary of 15 (I/I0).
Description: Constructs for murine K2P channels, including K2P2.1(TREK-1) (Gene ID 16526), K2P10.1(TREK-2) (Gene ID 72258), K2P4.1(TRAAK) (Gene ID 16528), K2P5.1(TASK-2) (Gene ID 16529), K2P3.1(TASK-1) (Gene ID 16527), K2P9.1(TASK-3) (Gene ID 223604), and K2P18.1(TRESK) (Gene ID 332396) in pGEMHE/pMO, were used for Xenopus oocyte experiments as previously described.[10],[26] Murine K2P2.1(TREK-1) (Gene ID 16526) was expressed in HEK-293 cells using a pIRES-EGFP construct as previously described.[26] Murine K2P13.1(THIK-1) (Gene ID 217826) and K2P1.1(TWIK-1) (Gene ID 16525) were cloned into pGEMHE/pMO for use in Xenopus oocytes. […]
as §1

A further test concerns the target T3, K2P3.1(TASK-1) (Mus musculus, UniProt O35111).
T3 construct: expressed in transfected cells; host or cells: Xenopus laevis oocytes injected with mRNA made from pGEMHE/pMO
The experiment in a line: TEVC of K2P3.1(TASK-1) in Xenopus oocytes. To be noted: concentrations up to the solubility limit (∼80 μM). How it is done:
BL-1249 activates K2P2.1(TREK-1)[18],[40] and K2P10.1(TREK-2),[7] but its effects on other K2P channels have not been characterized. […] In order to test if the original 10 μM assay had missed BL-1249 effects in other K2P channels, we tested concentrations of BL-1249 up to the solubility limit (∼80 μM) against the other K2P subfamily representatives. […]
as §1, with “current. Fold activation upon compound application is expressed as I/I0 (0 mV), derived from the current at 0 mV in the presence of compound divided by the basal current at 0 mV in standard ND96 without compound. Data were analyzed and plotted using Graphpad Prism Version 5 (GraphPad Software, San Diego California USA, www.graphpad.com).” for “current.”

T3 sequence (O35111 whole entry): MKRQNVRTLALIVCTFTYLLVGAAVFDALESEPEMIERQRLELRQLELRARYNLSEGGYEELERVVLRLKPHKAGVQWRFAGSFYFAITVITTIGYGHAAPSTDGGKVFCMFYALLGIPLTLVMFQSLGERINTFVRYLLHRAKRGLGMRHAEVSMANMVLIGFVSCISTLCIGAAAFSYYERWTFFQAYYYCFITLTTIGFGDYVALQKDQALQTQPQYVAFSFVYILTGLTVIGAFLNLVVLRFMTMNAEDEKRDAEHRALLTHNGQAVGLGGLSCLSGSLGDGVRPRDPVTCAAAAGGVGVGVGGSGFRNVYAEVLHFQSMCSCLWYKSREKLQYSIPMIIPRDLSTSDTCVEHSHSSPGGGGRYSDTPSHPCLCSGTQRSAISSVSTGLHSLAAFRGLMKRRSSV

Take `c1ccc(-c2nnn[nH]2)c(Nc2cccc3c2CCCC3)c1` [BL-1249, (5,6,7,8-tetrahydro-naphthalen-1-yl)-[2-(1H-tetrazol-5-yl)-phenyl]-amine]: on K2P2.1(TREK-1) G137I, the EC50 was over 60 µM and the “sensitivity of K2P2.1(TREK-1) G137I to compound” value is “insensitive”. Further, a half-maximal response at K2P2.1(TREK-1)Δ308 (EC50) required 35 ± 8 µM. For the same molecule, at K2P3.1(TASK-1), the “activation of K2P3.1(TASK-1)” value was “failed to find evidence for activation”.
